Assay results as given in paper PMC8081377 (Mutagenesis, 2021).
Like-named read-outs stand apart in the source and are kept apart here.

Experiments:
[1] = test system: EpiDerm™ EPI-200-MNA skin tissues
[2] = test system: EpiDerm™ EPI-200-MNA skin tissues; details: % VCC or % BN; lab(s) as stated in the text
[3] = two treatments, vs solvent control

O=[N+]([O-])c1cccc2ccccc12 [1-Nitronaphthalene]
classification in the RSMN assay by Lab A [1]: negative
top/maximum dose tested, limited by excessive or strong cytotoxicity [2]: 50–80 µg/cm^2

OCC(Br)CBr (stereo not shown) [2,3-Dibromo-1-propanol]
classification in the RSMN assay by Lab A ([1]; overall call): positive
top/maximum dose tested, limited by excessive or strong cytotoxicity [2]: 500–600 µg/cm^2

Cc1ccc(N)cc1N [2,4-Diaminotoluene (2,4-DAT), 2,4-Diaminotoluene]
classification in the RSMN assay by Lab A ([1]; overall call): positive
classification in the RSMN assay by Lab B ([1]; overall call): negative
classification in the RSMN assay by Lab D ([1]; overall call): negative
% MN-BN response in individual experiment(s), Lab B, 72-h protocol ([1]; three treatments, vs solvent control): negative
% MN-BN response in individual experiment(s), Lab B, 48-h protocol [1, 3]: none of which caused a significant increase
% MN-BN response in individual experiment(s), Lab D, 48-h protocol [1, 3]: negative
top/maximum dose tested, limited by excessive or strong cytotoxicity [2]: 700 µg/cm^2

Oc1ccc(Cl)cc1Cl [2,4-Dichlorophenol]
classification in the RSMN assay by Lab A ([1]; overall call): negative
classification in the RSMN assay by Lab D ([1]; overall call): negative
% MN-BN response in individual experiment(s), Lab A, 48-h protocol [1, 3]: no statistically significant increases
% MN-BN response in individual experiment(s), Lab D, 48-h protocol [1, 3]: negative
top/maximum dose tested, limited by excessive or strong cytotoxicity [2]: 50 µg/cm^2

Cc1c(N)cccc1N [2,6-Diaminotoluene (2,6-DAT), 2,6-Diaminotoluene]
classification in the RSMN assay by Lab D [1]: negative
top/maximum dose tested, limited by excessive or strong cytotoxicity [2]: 350 µg/cm^2

O=c1[nH]cc(F)c(=O)[nH]1 [5-Fluorouracil]
% MN-BN response in individual experiment(s), Lab B, 48-h protocol [1]: negative results
% MN-BN response in individual experiment(s), Lab B, 72-h protocol [1]: negative results
classification in the RSMN assay by Lab A [1]: positive
classification in the RSMN assay by Lab B [1]: negative

COc1cc([C@@H]2c3cc4c(cc3[C@@H](O[C@@H]3O[C@@H]5CO[C@@H](C)O[C@H]5[C@H](O)[C@H]3O)[C@H]3COC(=O)[C@H]23)OCO4)cc(OC)c1O [Etoposide]
top/maximum dose tested, limited by excessive or strong cytotoxicity [2]: 1.6 µg/cm^2

CCCCCl [N-Butyl chloride]
% MN-BN response in individual experiment(s), Lab A, 72-h protocol [1]: negative results
% MN-BN response in individual experiment(s), Lab B, 48-h protocol [1]: no significant increases
% MN-BN response in individual experiment(s), Lab C, 48-h protocol [1]: no significant increase
% MN-BN response in individual experiment(s), Lab C, 72-h protocol [1]: no significant increase
% MN-BN response in individual experiment(s), Lab D, 48-h protocol [1]: no significant increases
classification in the RSMN assay by Lab A [1]: negative
classification in the RSMN assay by Lab B [1]: negative
classification in the RSMN assay by Lab C [1]: negative
classification in the RSMN assay by Lab D [1]: negative

COC(=O)C1=C(C)NC(C)=C(C(=O)OC)C1c1ccccc1[N+](=O)[O-] [Nifedipine]
classification in the RSMN assay by Lab A ([1]; overall call): negative

Oc1ccccc1 [Phenol]
% MN-BN response in individual experiment(s), Lab D, 48-h protocol [1]: significant increase in the % MN-BN was observed only at the highest dose tested
classification in the RSMN assay by Lab D [1]: negative

Oc1cccc(O)c1 [Resorcinol]
% MN-BN response in individual experiment(s), Lab B, 48-h protocol [1]: significant increase in % MN-BN at the highest dose tested
% MN-BN response in individual experiment(s), Lab B, 72-h protocol [1]: did not induce any statistically significant increase
classification in the RSMN assay by Lab B [1]: negative

CCCCNC(=O)NS(=O)(=O)c1ccc(C)cc1 [Tolbutamide]
classification in the RSMN assay by Lab A ([1]; early Phase 2a only): positive
classification in the RSMN assay by Lab A ([1]; later Phase 2a testing only, expected outcome negative): correctly classified
classification in the RSMN assay by Lab B ([1]; overall call): negative
classification in the RSMN assay by Lab C ([1]; overall call): negative
% MN-BN response in individual experiment(s), Lab C, 48-h protocol [1, 3]: negative results
